What was measured:
[1] = cited from earlier work
[2] = Equivalent concentration of bitter taste, sensory evaluation, mixed amino acids (Example 29); assay type: in vivo, human; settings: 2% mixed amino acids; addition: Derivative 2 10 ppm, Glycyrrhizin 250 ppm, Sucrose 50000 ppm; no addition 0.105
Procedure: With respect to the solution produced by adding derivative 1 (the product of the present invention), or adding nothing (no addition; the reference product) in the concentration shown in the following table 4 to the amino acid solution (2% solution of arginine by weight), the sensory evaluation was performed (using 10 panelists), and the equivalent concentration of bitter taste was determined. The results were shown in the table 4, wherein the equivalent concentration of bitter taste was shown in the concentration of aqueous solution of anhydrous caffeine which is a substance of bitter taste.
With respect to the solution produced by adding derivative 2, Glycyrrhizin or sucrose (the product of the present invention), or adding nothing (no addition; the-reference product) to 2% (by weight) solution of the mixed amino acids (leucine:valine:isoleucine=1:0.5:0.5 by weight), the sensory evaluation was performed (using 10 panelists), and the equivalent concentration of bitter taste was determined in the same way as that described in Example 28, and shown in the table 5.

[3] = Taste characteristics in a cola drink (9 items, similarity index vs cola drink containing 10% sucrose); assay type: in vivo, human; settings: non-carbonated cola drink, PSE 10%, vs cola drink with 10% sucrose; smaller = closer to sucrose; 8 panelists
Procedure: The following experiments were performed in the same way as that of Example 2. Instead of aqueous solution, the cola drink of each of derivatives 1 to 9 having a sweetness level equivalent to that of PSE 10% was prepared, and compared with the cola drink containing 10% sucrose. The evaluation method and so on were same as that of Example 2.
When carbon dioxide is blown in the cola drink, the carbonated cola drink is prepared, however, the taste of the cola drink can be compared more easily in that without carbon dioxide. Thus the sensory evaluation of non-carbonated cola drink was performed.
The composition of the cola drink employed was same as that of Example 1.
(§1) The similarity indexes were calculated as those of aqueous solutions. The smaller the similarity index becomes, the better the taste balances, and the closer the taste is to the taste characteristics (quality) of sucrose. The total taste becomes preferable. The similarity indexes of each derivatives are shown as follows. […]
The following experiments were conducted in the same way as that of Example 15. Instead of aqueous solution, the cola drink of each of derivatives 1 to 9 having a sweetness level equivalent to that of PSE 10% was prepared, and compared with the cola drink containing 10% sucrose. All of the evaluation method and so on were same as those of Example 15.
When carbon dioxide is blown in the cola drink, the carbonated cola drink is prepared, however, the taste of the cola drink can be compared more easily in that without carbon dioxide. Thus the non-carbonated cola drink was organoleptically evaluated.
The composition of the cola drink employed was same as that of Example 14.
as §1, with “(quality)of” for “(quality) of”, “each of the” for “each”

[4] = Measurement of the magnification of sweetness intensity in aqueous solution (sensory evaluation against sucrose solutions); assay type: in vivo, human; settings: aqueous solution
Procedure: (§2) An aqueous solution was prepared by diluting derivative 2 to be PSE 10% concentration (15.5 mg/1000 ml=10/6500 g/100 ml), assuming that the intensity of sweetness of derivative 2 was 6500 times that of sucrose. Separately, aqueous sucrose solutions having sucrose concentrations of (a)6.94%, (b)8.33%, (c)10%, (d)12%, and (e)14.4% were prepared. The sensory evaluation was performed by determining which sucrose solution was closest to the solution of derivative 2 in the sweetness intensity. The result of calculation of the average of points of 20 panelists was 2.25 point.
(§3) The intensity of sweetness of the solution of derivative 2 was 8.75% according to the following equation: (10.0−8.33)×0.25+8.33=8.75. Accordingly, the intense sweetness of derivative 2 was 5600 (=8.75/0.00155) times that of sucrose. According to the same experiment, the intensity of sweetness of derivative 1 was 22600 times that of sucrose. Furthermore, the magnification of sweetness intensity of other derivatives (3 to 9) can be determined by the same method.
as §3, with “intensity of” for “intense”
as §2, with “intense” for “intensity of”
The sweetness intensity of the solution of derivative 2 was 8.75% according to the following equation: (10.0−8.33)×0.25+8.33=8.75. Therefore, the magnification of sweetness intensity of derivative 2 was 5600 (=8.75/0.00155) times that of sucrose. When the same experiment was performed, the magnification of sweetness intensity of derivative 1 was 22600 times that of sucrose.

[5] = Taste characteristics in an aqueous solution (9 items, similarity index vs aqueous 10% sucrose solution); assay type: in vivo, human; settings: PSE 10%, smaller = closer to sucrose, 8 panelists
Procedure: The following experiments were performed using the water obtained by ion exchanging and further distilling the water.
An aqueous solution of each of derivatives 1 to 9 having a sweetness level equivalent to that of PSE 10% was prepared, and compared with aqueous 10% sucrose solution with respect to the following 9 items, i.e., “onset of the taste”, “round taste”, “clear taste”, “lingering taste”, “peculiar taste”, “heavy taste”, “bitter taste”, “astringent taste” and “irritation”. The results were determined as 5 levels (−2 point: very weak, −1 point: a little weak, 0 point: same, +1 point: a little strong, +2 point: very strong) by 8 panelists, and the average points were calculated. The sample solutions of the derivatives equivalent to PSE 10%, were prepared by using the magnification of sweetness intensity measured in Example 1, and the amounts of each derivatives to be used were as follows.
Next, the total of the absolute value of the deviation from sucrose in each of the evaluation items consisting of the onset of the taste, the round taste, the clear taste, the lingering taste, the peculiar taste, the heavy taste, the bitter taste, the astringent taste and the irritation was divided by 9 (total number of items) to calculate the similarity (which is referred to as “similarity index”). The smaller the similarity index becomes, the better the taste balances, and the closer the taste is to the taste characteristics (quality) of sucrose. The total taste becomes preferable. The similarity indexes of each derivatives are shown as follows.
To the aqueous solution of derivative 1 having a sweetness level equivalent to that of PSE 10%, salt was added as final concentratins of 0.1%, 0.2% and 0.5% to compare with the aqueous solution of 10% sucrose for by 2 points comparison method (n=8) and evaluate the characteristics of the taste.
The sensory evaluation was performed by the same way as Example 6.
The following experiments were conducted using the water obtained by ion exchanging and further distilling tap water.
An aqueous solution of each of derivatives 1 to 9 having a sweetness level equivalent to that of PES 10% was prepared, and compared with aqueous 10% sucrose solution with respect to 9 items, namely, “the onset of the taste”, “round taste”, “clear taste”, “lingering taste”, “peculiar taste”, “heavy taste”, “bitter taste”, “astringent taste” and “irritation”. The results were determined as 5 levels (−2 point: very weak, −1 point: a little weak, 0 point: same, +1 point: a little strong, +2 point: very strong) by 8 panelists, and the average points were calculated.
Next, the total of the absolute value of the deviation from sucrose in each of the evaluation items consisting of onset of the taste, round taste, clear taste, lingering taste, peculiar taste, heavy taste, bitter taste, astringent taste and irritation was divided by 9 (total number of items) to calculate the similarity (which is refer to as “similarity index”). The smaller the similarity index becomes, the better the taste balances, and the closer the taste is to the taste characteristics (quality) of sucrose. The total taste becomes preferable. The similarity indexes of each of the derivatives are shown as follows.

[6] = Magnification of sweetness intensity in the cola drink (sensory evaluation against sucrose cola drinks); assay type: in vivo, human
Description: And the magnification of sweetness intensity in the cola drink can be also determined by the same method compared to the control solution of cola drink containing 10% sucrose.
The composition of cola drink is as follows.
As for the concentration of the references, the sucrose concentrations of previous (a) to (e) were used. In consequence, the magnification of sweetness intensity in the cola drink of derivative 1 was 22600 times, and that of derivative 2 was 4900 times.
And the magnification of sweetness intensity in the cola drink can be also determined by the same method compared to the reference solution of cola drink containing 10% sucrose.
The components of cola drink is as follows.
As for the concentration of the references, the sucrose concentrations of previous (a) to (e) were used. As the results, the magnification of sweetness intensity in the cola drink of derivative 1 was 22600 times, and that of derivative 2 was 4900 times.
And the magnification of sweetness in the cola drink can be also determined by the same method compared to the control solution of cola drink containing 10% sucrose.
As for the concentration of the references, the sucrose concentrations of previous (a) to (e) were used. As a result, the magnification of sweetness intensity in the cola drink of derivative 1 was 22600 times, and that of derivative 2 was 4900 times.

## CC1(C)[C@@H](O[C@H]2O[C@H](C(=O)O)[C@@H](O)[C@H](O)[C@H]2O[C@@H]2O[C@H](C(=O)O)[C@@H](O)[C@H](O)[C@H]2O)CC[C@]2(C)[C@H]3C(=O)C=C4[C@@H]5C[C@@](C)(C(=O)O)CC[C@]5(C)CC[C@@]4(C)[C@]3(C)CC[C@@H]12 [Glycyrrhizin]
[1]; values used for calculation in Example 5
  magnification used for the sweetness intensity of the another sweetener with a high intense sweetness: 170 times
[2]
  Equivalent concentration of bitter taste: 0.105 g/100 g

## OC[C@H]1O[C@@](CO)(O[C@H]2O[C@H](CO)[C@@H](O)[C@H](O)[C@H]2O)[C@@H](O)[C@@H]1O [Sucrose]
[1]; values used for calculation in Example 17, sucrose = 1
  magnification of sweetness intensity (numerical values in brackets): 1
[2]
  Equivalent concentration of bitter taste: 0.067 g/100 g
[3]
  Similarity index: 0

## COC(=O)[C@H](Cc1ccccc1)NC(=O)[C@H](CC(=O)O)NCCCc1ccc(OC)cc1O [Derivative 7, N-[N-[3-(2-hydroxy-4-methoxyphenyl)propyl]-L-α-aspartyl]-L-phenylalanine 1-methyl ester]
[4]
  Amount equivalent to PSE 10%: 9.0 mg/1000 ml
[5]
  Similarity index: 0.86
[3]
  Similarity index: 0.90
[6]
  Amount equivalent to PSE 10%: 9.4 mg/1000 ml

## COC(=O)[C@H](Cc1ccccc1)NC(=O)[C@H](CC(=O)O)NCCCc1ccc(O)cc1O [Derivative 9, N-[N-[3-(2,4-dihydroxyphenyl)propyl]-L-α-aspartyl]-L-phenylalanine 1-methyl ester]
[4]
  Amount equivalent to PSE 10%: 12.5 mg/1000 ml
[5]
  Similarity index: 0.77
[3]
  Similarity index: 1.00
[6]
  Amount equivalent to PSE 10%: 13.3 mg/1000 ml

## COC(=O)[C@H](Cc1ccccc1)NC(=O)[C@H](CC(=O)O)NCCC(C)(C)c1ccc(OC)cc1 [Derivative 5, N-[N-[3-(4-methoxyphenyl)-3-methylbutyl] -L-α-aspartyl] -L-phenylalanine 1-methyl ester]
[4]
  Amount equivalent to PSE 10%: 11.9 mg/1000 ml
[5]
  Similarity index: 1.38
[3]
  Similarity index: 1.34
[6]
  Amount equivalent to PSE 10%: 12.5 mg/1000 ml

## COC(=O)[C@H](Cc1ccccc1)NC(=O)[C@H](CC(=O)O)NCCC(C)(C)c1ccc(OC)c(O)c1 [Derivative 3, N-[N-[3-(3-hydroxy-4-methoxyphenyl)-3-methylbutyl]-L-α-aspartyl]-L-phenylalanine 1-methyl ester]
[4]
  Amount equivalent to PSE 10%: 2.3 mg/1000 ml
[5]
  Similarity index: 1.04
[3]
  Similarity index: 1.11
[6]
  Amount equivalent to PSE 10%: 2.7 mg/1000 ml

From patent publication US20030059511A1, “Sweetener compositions and uses thereof” (AJINOMOTO CO., INC., priority 1999, published 2003)
